Legend:
ER [1] = biological target: T1, ER (Homo sapiens (Human), UniProt P03372); assay: In-cell western (ICW) ER degradation assay in T47D cells; format: cell-based; settings: 16 hrs; for DC50: ER degradation; for Dmax / T47D Dmax %: maximal ER degradation
ER [2] = biological target: T1, ER; assay: In-cell western (ICW) ER degradation assay in MCF-7 cells; format: cell-based; settings: MCF7, 16 hrs; for DC50: ER degradation; for Dmax: MCF7, maximal ER degradation; for MCF7 Dmax %: maximal ER degradation
ERα_LBD(GST) = ERα_LBD(GST) (Homo sapiens (Human), UniProt P03372); assay: LanthaScreen TR-FRET ERα competitive binding assay; settings: read-out: ERα HTRF IC50
Experimental: • 1. ERα_LBD(GST) protein: 4 nM • 2. Tb Anti-GST: 2 nM • 3. Fluormone ES2 Green tracer: 3 nM • 4. Incubation time: 60 min • 5. DMSO: 1% • 6. Assay buffer: Adding 1M DTT to Nuclear receptor Buffer K for final 5 mM DTT. • 7. ZPE: 1% DMSO • 8. HPE: 1 μM ARV_471 • 9. LanthaScreen® TR-FRET ERα Competitive Binding Assay (ThermoFisher, #A15887)
• 1) Cherry pick 2 μL 10 mM compound stock to column 1 of a 384 intermediate plate • 2) Add 18 μL DMSO to column 1 to dilute compound to 1 mM. • 3) Transfer 10 μL 1 mM compound to column 1 of a LDV plate. • 2) Add 6 μl DMSO to column 2-10 of the LDV plate. • 3) Compounds undergo 3-fold serial dilution (3 μL+6 μL) in DMSO. • 4) Transfer 120 nL compound solution to assay plate. • ZPE: 120 nL 100% DMSO
Prepare complete nuclear receptor buffer K by adding 1 M DTT to nuclear receptor buffer K for a final concentration of 5 mM DTT. Complete nuclear receptor buffer K must be prepared fresh daily. Prepare 2× protein solution using complete nuclear receptor buffer K containing 8 nM ERα_LBD(GST) and 4 nM Tb Anti-GST. Then, prepare 2× Fluormone ES2 Green tracer (6 nM) using complete nuclear receptor buffer K. Add 6 μL 2× Fluormone ES2 green tracer into a compound plate (PerkinElmer 6008289) by dragonfly with one-tips-addition. Subsequently, add 6 μL 2× protein solution into the plate. Briefly and gently mix the 384-well plate on a plate shaker and incubate at room temperature protected from light for 60 min. The plate is sealed with a cover to minimize evaporation. Read the plate at wavelengths of 520 nm and 495 nm. Calculate the TR-FRET ratio by dividing the emission signal at 520 nm by the emission signal at 495 nm. Generate a binding curve by plotting the emission ratio vs. the log [ligand]. To determine the IC50 value, fit the data using XL-fit for a sigmoidal dose-response.

CRBN/DDB1 = CRBN/DDB1 (Homo sapiens (Human), UniProt Q96SW2); assay: HTRF binding assay to CRBN/DDB1; settings: read-out: CRBN HTRF IC50
Experimental: The binding potency was determined using HTRF assay technology (Perkin Elmer). Compounds were serially diluted in DMSO and 0.2 μL volume was transferred to white 384-well plate.

Sequence of CRBN/DDB1 (Q96SW2 whole entry): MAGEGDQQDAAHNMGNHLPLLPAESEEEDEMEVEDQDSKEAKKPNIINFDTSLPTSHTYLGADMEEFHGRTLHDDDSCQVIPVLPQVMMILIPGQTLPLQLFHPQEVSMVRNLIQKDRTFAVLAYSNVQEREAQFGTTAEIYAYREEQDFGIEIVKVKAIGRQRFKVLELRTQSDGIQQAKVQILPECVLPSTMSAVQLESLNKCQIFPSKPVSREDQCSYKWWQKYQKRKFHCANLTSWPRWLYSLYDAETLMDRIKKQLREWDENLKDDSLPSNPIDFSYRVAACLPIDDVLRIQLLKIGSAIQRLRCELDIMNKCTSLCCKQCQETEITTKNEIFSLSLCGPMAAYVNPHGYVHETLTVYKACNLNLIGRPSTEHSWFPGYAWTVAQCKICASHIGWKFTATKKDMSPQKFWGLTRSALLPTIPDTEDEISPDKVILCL
Sequence of CRBN/DDB1 (Q16531 whole entry partner): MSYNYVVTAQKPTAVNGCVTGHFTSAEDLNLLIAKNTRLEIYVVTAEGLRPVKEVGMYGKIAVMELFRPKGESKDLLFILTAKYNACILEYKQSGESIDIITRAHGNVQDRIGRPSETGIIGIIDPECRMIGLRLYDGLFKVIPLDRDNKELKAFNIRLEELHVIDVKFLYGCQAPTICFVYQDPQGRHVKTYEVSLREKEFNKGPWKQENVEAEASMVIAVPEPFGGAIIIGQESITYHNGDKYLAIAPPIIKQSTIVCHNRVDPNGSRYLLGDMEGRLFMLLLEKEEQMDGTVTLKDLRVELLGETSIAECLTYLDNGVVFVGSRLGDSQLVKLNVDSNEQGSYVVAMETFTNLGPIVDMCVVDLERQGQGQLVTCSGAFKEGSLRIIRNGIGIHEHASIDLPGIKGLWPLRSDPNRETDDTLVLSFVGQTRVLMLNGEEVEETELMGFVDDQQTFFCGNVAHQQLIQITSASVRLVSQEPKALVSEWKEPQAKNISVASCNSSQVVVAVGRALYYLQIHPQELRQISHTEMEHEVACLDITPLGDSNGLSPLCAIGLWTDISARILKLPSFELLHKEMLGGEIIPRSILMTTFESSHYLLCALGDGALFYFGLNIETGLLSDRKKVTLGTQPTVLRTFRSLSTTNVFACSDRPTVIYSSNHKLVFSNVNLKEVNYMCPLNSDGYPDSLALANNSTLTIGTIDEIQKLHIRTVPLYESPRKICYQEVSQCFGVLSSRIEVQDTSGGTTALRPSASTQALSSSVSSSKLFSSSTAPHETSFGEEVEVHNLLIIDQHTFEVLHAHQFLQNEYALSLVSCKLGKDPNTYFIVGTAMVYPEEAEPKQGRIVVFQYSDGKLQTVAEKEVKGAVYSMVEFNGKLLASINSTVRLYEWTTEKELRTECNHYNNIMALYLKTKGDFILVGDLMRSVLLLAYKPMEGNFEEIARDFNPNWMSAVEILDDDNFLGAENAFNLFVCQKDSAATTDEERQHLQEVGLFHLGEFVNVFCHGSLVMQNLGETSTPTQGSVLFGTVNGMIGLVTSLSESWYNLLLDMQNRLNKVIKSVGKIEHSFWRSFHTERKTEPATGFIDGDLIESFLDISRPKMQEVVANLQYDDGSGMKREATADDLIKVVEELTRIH
Sequence of ERα_LBD(GST) (P03372 311-547): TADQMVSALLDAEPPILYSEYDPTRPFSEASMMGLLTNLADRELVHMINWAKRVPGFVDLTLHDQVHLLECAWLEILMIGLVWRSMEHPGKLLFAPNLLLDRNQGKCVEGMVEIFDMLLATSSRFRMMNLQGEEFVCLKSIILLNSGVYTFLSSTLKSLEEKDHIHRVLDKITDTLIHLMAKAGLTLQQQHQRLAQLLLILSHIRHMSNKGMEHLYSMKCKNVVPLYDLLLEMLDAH
T1 sequence (P03372 whole entry): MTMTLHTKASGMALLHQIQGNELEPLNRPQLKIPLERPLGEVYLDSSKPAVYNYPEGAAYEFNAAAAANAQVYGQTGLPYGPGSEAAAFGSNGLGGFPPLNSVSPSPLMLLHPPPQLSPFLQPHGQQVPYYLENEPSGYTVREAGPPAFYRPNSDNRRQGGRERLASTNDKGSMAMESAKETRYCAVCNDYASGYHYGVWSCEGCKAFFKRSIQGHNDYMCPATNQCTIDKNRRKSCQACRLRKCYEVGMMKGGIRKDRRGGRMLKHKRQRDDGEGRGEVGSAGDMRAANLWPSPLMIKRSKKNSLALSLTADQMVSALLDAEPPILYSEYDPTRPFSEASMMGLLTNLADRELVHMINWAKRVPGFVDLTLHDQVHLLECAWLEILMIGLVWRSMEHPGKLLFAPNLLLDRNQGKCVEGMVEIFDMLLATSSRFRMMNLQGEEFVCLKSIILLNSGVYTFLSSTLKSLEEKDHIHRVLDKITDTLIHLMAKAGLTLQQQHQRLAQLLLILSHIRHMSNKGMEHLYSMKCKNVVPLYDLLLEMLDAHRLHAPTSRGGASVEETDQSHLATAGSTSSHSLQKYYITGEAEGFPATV

Row | Compound | DC50 (ER [1]) [nM] | Dmax (ER [1]) [%] | DC50 (ER [2]) [nM] | Dmax (ER [2]) [%] | IC50 (ERα_LBD(GST)) [nM] | IC50 (CRBN/DDB1) [nM] | T47D Dmax % (ER [1]) | MCF7 Dmax % (ER [2])
1 | O=C1CCC(N2Cc3cc4c(cc3C2=O)CN(C(=O)C2CCN(C3CCN(c5ccc([C@@H]6c7ccc(O)cc7OC[C@@H]6c6ccccc6)cc5)CC3)CC2)C4)C(=O)N1 (single isomer, unassigned) [Compound A81] | < 1 | ≥ 75 | < 1 | ≥ 75 | < 5 | 500 to 5000 |  | 
2 | O=C1CCC(N2Cc3c(ccc4c3OC[C@H]3CN(CC5CCN(c6ncc([C@H]7c8ccc(O)cc8OC[C@H]7c7ccccc7)cn6)CC5)CCN43)C2=O)C(=O)N1 (single isomer, unassigned) [Compound A35] | 1 to 10 | 50 to 75 | 1 to 10 | 25 to 50 | < 5 | 50 to 500 |  | 
3 | COc1cc(N2CCC3(CC2)CC(CN2CCC4(CC2)COc2c4ccc4c2CN(C2CCC(=O)NC2=O)C4=O)C3)c(F)cc1[C@H]1c2ccc(O)cc2OC[C@H]1c1ccccc1 (stereo partly drawn) [Compound A130, 3-(1′-((7-(2-fluoro-4-((3R,4R)-7-hydroxy-3-phenylchroman-4-yl)-5-methoxyphenyl)-7-azaspiro[3.5]nonan-2-yl)methyl)-6-oxo-6,8-dihydro-2H,7H-spiro[furo[2,3-e]isoindole-3,4′-piperidin]-7-yl)piperidine-2,6-dione] | < 1 |  | < 1 |  | < 5 | 50 to 500 | A (“A”; >=75%) | A (“A”; >=75%)
4 | O=C1CCC(N2C(=O)c3cc4c(cc3C2=O)CN(CC(=O)N2CC3(CCN(c5ccc([C@@H]6c7ccc(O)cc7OC[C@@H]6c6ccccc6)cc5)CC3)C2)C4)C(=O)N1 (single isomer, unassigned) [Compound A26] |  |  |  |  | < 5 | 50 to 500 |  | 
5 | O=C1CCC(N2C(=O)c3cc4c(cc3C2=O)CN(CC(=O)N2CCC3(CC2)CN(c2ccc([C@@H]5c6ccc(O)cc6OC[C@@H]5c5ccccc5)cc2)C3)C4)C(=O)N1 (single isomer, unassigned) [Compound A44] | < 1 | 50 to 75 | 1 to 10 | 50 to 75 | < 5 | 50 to 500 |  | 
6 | O=C1CCC(N2C(=O)c3cc4c(cc3C2=O)CN(CC(=O)N2CCC3(CC2)CCN(c2ccc([C@H]5c6ccc(O)cc6OC[C@H]5c5ccccc5)cc2)CC3)C4)C(=O)N1 (stereo partly drawn) [Compound A40, 2-(2,6-dioxopiperidin-3-yl)-6-(2-(9-(4-((3R,4S)-7-hydroxy-3-phenylchroman-4-yl)phenyl)-3,9-diazaspiro[5.5]undecan-3-yl)-2-oxoethyl)-6,7-dihydropyrrolo[3,4-f]isoindole-1,3(2H,5H)-dione] | < 1 | 50 to 75 | 1 to 10 | 50 to 75 | ≥ 5 |  |  | 
7 | O=C1CCC(N2Cc3cc4c(cc3C2=O)CN(C(=O)CN2CCC3(CC2)CN(c2ccc([C@@H]5c6ccc(O)cc6OC[C@@H]5c5ccccc5)cc2)C3)C4)C(=O)N1 (stereo partly drawn) [Compound A49, 3-(6-(2-(2-(4-((3S,4R)-7-hydroxy-3-phenylchroman-4-yl)phenyl)-2,7-diazaspiro[3.5]nonan-7-yl)acetyl)-1-oxo-3,5,6,7-tetrahydropyrrolo[3,4-f]isoindol-2(1H)-yl)piperidine-2,6-dione] | 1 to 10 | 50 to 75 | 1 to 10 | 50 to 75 | < 5 | 50 to 500 |  | 
8 | O=C1CC[C@@H](N2Cc3cc4c(cc3C2=O)OCC42CCN(CC3CCC4(CC3)CN(c3ccc([C@H]5c6ccc(O)cc6OC[C@H]5c5ccccc5)cc3)C4)CC2)C(=O)N1 [Compound A153, (R)-3-(1′-((2-(4-((3R,4S)-7-hydroxy-3-phenylchroman-4-yl)phenyl)-2-azaspiro[3.5]nonan-7-yl)methyl)-7-oxo-5,7-dihydro-2H,6H-spiro[furo[2,3-f]isoindole-3,4′-piperidin]-6-yl)piperidine-2,6-dione] | < 1 | ≥ 75 | < 1 | 50 to 75 | < 5 |  |  | 
9 | O=C1CCC(N2Cc3c(ccc4c3OC[C@H]3CN(CC5CCN(c6ccc([C@H]7c8ccc(O)cc8OC[C@H]7c7ccccc7)cn6)CC5)CCN43)C2=O)C(=O)N1 (single isomer, unassigned) [Compound A64] | 1 to 10 | 50 to 75 | 1 to 10 | 25 to 50 | < 5 | 50 to 500 |  | 
10 | O=C1CC[C@H](NC(=O)c2ccc3c(n2)OC[C@H]2CN(CC4CCC5(CC4)CN(c4ccc([C@@H]6c7ccc(O)cc7OC[C@@H]6c6ccccc6)cc4)C5)CCN32)C(=O)N1 [Compound A142, (R)-N-((S)-2,6-dioxopiperidin-3-yl)-3-((2-(4-((3S,4R)-7-hydroxy-3-phenylchroman-4-yl)phenyl)-2-azaspiro[3.5]nonan-7-yl)methyl)-1,2,3,4,4a,5-hexahydropyrazino[1,2-d]pyrido[2,3-b][1,4]oxazine-8-carboxamide] | < 1 | 50 to 75 | 1 to 10 | 50 to 75 | < 5 | 500 to 5000 |  | 
11 | COc1cc(N2CCC(CN3CCN4c5cc6c(cc5OC[C@H]4C3)C(=O)N([C@@H]3CCC(=O)NC3=O)C6)CC2)ccc1[C@H]1c2ccc(O)cc2OC[C@H]1c1ccccc1 (single isomer, unassigned) [Compound A122] | < 1 | ≥ 75 | < 1 | ≥ 75 | < 5 |  |  | 
12 | O=C1CC[C@H](N2Cc3cc4c(cc3C2=O)OC[C@@H]2CN(CC3CC5(CCN(c6ccc([C@@H]7c8ccc(O)cc8OC[C@@H]7c7ccccc7)cc6)CC5)C3)CCN42)C(=O)N1 (single isomer, unassigned) [Compound A59] | < 1 | ≥ 75 | 1 to 10 | 50 to 75 | < 5 |  |  | 
13 | COc1cc(N2CCC(CN3CCN4c5ccc6c(c5OC[C@@H]4C3)CN([C@@H]3CCC(=O)NC3=O)C6=O)CC2)c(F)cc1[C@@H]1c2ccc(O)cc2OC[C@@H]1c1ccccc1 (single isomer, unassigned) [Compound A106] | < 1 | ≥ 75 | < 1 | ≥ 75 | < 5 |  |  | 
14 | COc1cc(N2CCC3(CC2)CC(CN2CCN4c5ccc6c(c5OC[C@@H]4C2)CN([C@@H]2CCC(=O)NC2=O)C6=O)C3)c(F)cc1[C@@H]1c2ccc(O)cc2OC[C@@H]1c1ccccc1 (single isomer, unassigned) [Compound A125] | < 1 | ≥ 75 | < 1 | ≥ 75 | < 5 |  |  | 
15 | O=C1CC[C@@H](NC(=O)c2ccc(N3CCN(CC4COC5(CCN(c6ccc([C@H]7c8ccc(O)cc8OC[C@H]7c7ccccc7)cc6)CC5)C4)CC3)cn2)C(=O)N1 (single isomer, unassigned) [Compound A145] | < 1 | 50 to 75 | 1 to 10 | 50 to 75 | < 5 | > 5000 |  | 
16 | O=C1CC[C@@H](N2Cc3c(ccc4c3OC[C@@H]3CN(C[C@@H]5COC6(CCN(c7ccc([C@H]8c9ccc(O)cc9OC[C@H]8c8ccccc8)cc7)CC6)C5)CCN43)C2=O)C(=O)N1 (single isomer, unassigned) [Compound A132] | 1 to 10 | 50 to 75 | 1 to 10 | 50 to 75 | < 5 |  |  | 
17 | COc1cc(N2CCC(CN3CCN4c5cc6c(cc5OC[C@H]4C3)C(=O)N(C3CCC(=O)NC3=O)C6)CC2)ccc1[C@@H]1c2ccc(O)cc2OC[C@@H]1c1ccccc1 (single isomer, unassigned) [Compound A84] |  | 50 to 75 |  | 50 to 75 | < 5 |  |  | 
18 | COc1cc(N2CCC(CN3CCN4c5ccc6c(c5OC[C@@H]4C3)CN([C@@H]3CCC(=O)NC3=O)C6=O)CC2)ccc1[C@H]1c2ccc(O)cc2OC[C@H]1c1ccccc1 (single isomer, unassigned) [Compound A121] |  | ≥ 75 |  | ≥ 75 | < 5 |  |  | 
19 | O=C1CCC(N2Cc3c(ccc4c3OC[C@H]3CN(CC5CC6(CCN(c7ccc([C@@H]8c9ccc(O)cc9OC[C@@H]8c8ccccc8)cn7)CC6)C5)CCN43)C2=O)C(=O)N1 (single isomer, unassigned) [Compound A66] | 1 to 10 |  | 1 to 10 |  | ≥ 5 |  | B (“B”: >50% and <75%) | B (“B”: >50% and <75%)

Reference: patent publication US20260000676A1, “CHROMAN DERIVATIVES AS ESTROGEN RECEPTOR DEGRADERS” (THE REGENTS OF THE UNIVERSITY OF MICHIGAN, priority 2022, published 2026)
